Article PMC8805215, “Crystal structure of a short-chain dehydrogenase/reductase from Burkholderia phymatum in complex with NAD” (Acta Crystallographica. Section F, Structural Biology …, 2022)

B1: short-chain dehydrogenase/reductase from Burkholderia phymatum (enzyme)
chain: MFEFDGKVAVITGAGSGFGRAFAEKGASLGMKLVLADVDEGALARTVDTLRAAGAEVIGVRTDVSNGAQVQALADAALEAFGKVHLLFNNAGVGAGGFLWESSANDWAWVFGVNVMGVAHGVRVFAPIMLGQNEAAHIVNTASVAGLLSPPSMGIYNASKHAVVSLTETLYHDLRNAGGEVGCSLLCPAFVPTGIADAERVRPEALRNEAQPTRSQLAADRQLQRAVRSGKLGATDVATLTFEAIAERRFYILTHPAILATVRLRHEDIELQRNPTDPLSLKPEVKEAR
notes: short-chain dehydrogenase/reductase, Burkholderia phymatum STM815, UniProt B2JGP2, amino acids 1-289; Crystallised with 4 mM NAD; each monomer holds NAD and an acetate; 278 residues of each monomer are seen in the structure; also called BpSDR; SDR from B. phymatum; source: E. coli BL21(DE3), purified (IMAC, SEC); not shown: His6 (MAHHHHHH, noncleavable hexahistidine fusion tag from the vector …)

Assays:
BpSDR = target: T1, BpSDR (Paraburkholderia phymatum, UniProt B2JGP2); test: X-ray crystal structure, […] Å; settings: co-crystallised with 4 mM NAD, pH 4.5-4.6, 14 °C; cofactor-binding domain; acetate from crystallisation solution in substrate site
T1 construct: gene Bphy_1038; residues 1-289, noncleavable N-terminal His6 tag (MAHHHHHHM-ORF), vector pBG1861, E. coli BL21(DE3); SEC monomer or dimer, prototypical SDR dimers by crystal symmetry

[1] = target: the molecule itself; test: crystal structure; space group C222(1), 1.80 A, three monomers in the asymmetric unit, with NAD and acetate; dimers generated by crystallographic symmetry

Molecule	X-ray crystal structure, 1.80 Å (BpSDR)	binding result [1]
NC(=O)c1ccc[n+]([C@@H]2O[C@H](COP(=O)(O)OP(=O)(O)OC[C@H]3O[C@@H](n4cnc5c(N)ncnc54)[C@H](O)[C@@H]3O)[C@@H](O)[C@H]2O)c1 [NAD]	each monomer having an acetate molecule in the substrate-binding domain and a NAD molecule	
B1		binds
